Source: patent publication US12030896B2, “PIKfyve inhibitors” (Mayo Foundation for Medical Education and Research, priority 2018, dated 2024)
Several values for one entry are separate records, joined by “and”; a condition that tells them apart may be missing. Equal entries are not always repeated. Where two headings read alike, the source gives them in different places.

What was measured:
[1] = test system: MPNST cells lines (S462, S462TY, 26T, T265, SNF96.2); assay: Cytotoxicity against MPNST cell lines; conditions: DMEM-based medium
Description: For this reason, it was hypothesized that tumor cells that have activated RAS would have increased sensitivity to this compound. Malignant peripheral nerve sheath tumors (MPNSTs) arise in the population sporadically, and with very high frequency in patients with NF1 mutation. NF1 is a RAS suppressor, and therefore, tumors arising in the NF1-mutant background, have apriori activation of the RAS signaling pathway.

[2] = Pharmacokinetic study of Example 3 in mouse (IV, IP); format: in vivo, C57 Mouse; conditions: for AUC(0-inf): read-out: AUCINF_pred
Protocol: Species: C57 Mouse. Dose Route: IV&IP. Formulation Vehicle: IV&IP: 10% DMSO/30% PEG400/60% Saline. Dose Level: IV (5 mg/kg) and IP (30 mg/kg). Dose Volume: IV (5 mL/kg) and IP (10 mL/kg). Formulation concentrations: IV (1 mg/mL) and IP (3 mg/mL). LLOQ: IV (2 ng/mL) and IP (10 ng/mL).

[3] = 5 mg/kg IV, individual animals 101M-103M
[4] = 30 mg/kg IP, individual animals 201M-203M
[5] = C57, mouse, plasma, ip, 30 mg/kg, 30 mg/kg IP, individual animals 201M-203M
[6] = C57, mouse, plasma, ip, 30 mg/kg, 30 mg/kg IP, mean
[7] = C57, mouse, plasma, iv, 5 mg/kg, 5 mg/kg IV, individual animals 101M-103M
[8] = C57, mouse, plasma, iv, 5 mg/kg, 5 mg/kg IV, mean

Structure (SMILES): Cc1ccc(Nc2nc(N/N=C/c3c[nH]c4ccccc34)cc(N3CCOCC3)n2)cc1 [Example 3, (E)-4-(2-((1H-indol-3-yl)methylene)hydrazinyl)-6-morpholino-N-(p-tolyl)pyrimidin-2-amine]
- sensitivity to compound-induced death [1]: highly sensitive
- Plasma concentrations ([2]; 5 mg/kg IV, 0.08 h, individual animals 101M-103M): 9197.2 ng/mL and 4387.4 ng/mL and 7116.5 ng/mL
- Plasma concentrations ([2]; 5 mg/kg IV, 0.25 h, individual animals 101M-103M): 7195.4 ng/mL and 2758.6 ng/mL and 3627.2 ng/mL
- Plasma concentrations ([2]; 5 mg/kg IV, 0.50 h, individual animals 101M-103M): 1641.4 ng/mL and 2830.9 ng/mL
- Plasma concentrations ([2]; 5 mg/kg IV, 1.00 h, individual animals 101M-103M): 944.6 ng/mL and 1358.7 ng/mL
- Plasma concentrations ([2]; 5 mg/kg IV, 2.00 h, individual animals 101M-103M): 355.3 ng/mL and 348.7 ng/mL
- Plasma concentrations ([2]; 5 mg/kg IV, 4.00 h, individual animals 101M-103M): 71.0 ng/mL and 80.3 ng/mL
- Plasma concentrations ([2]; 5 mg/kg IV, 8.00 h, individual animals 101M-103M): 35.2 ng/mL and 37.8 ng/mL
- Plasma concentrations ([2]; 5 mg/kg IV, 24.00 h, individual animals 101M-103M, LLOQ 2 ng/mL): BLQ
- AUCINF_pred [2, 3]: 3424.1 ng·h/mL and 4892.0 ng·h/mL
- AUClast [2, 3]: 3387.7 ng·h/mL and 4862.4 ng·h/mL
- Cl_pred [2, 3]: 15.2 mL/min/kg and 24.3 mL/min/kg and 17 mL/min/kg
- Cmax [2, 3]: 9197.2 ng/mL and 4387.4 ng/mL and 7116.5 ng/mL
- HL_Lambda_z (T1/2, h) [2, 3]: 0.98 h and 0.85 h
- MRTlast [2, 3]: 0.90 h and 0.77 h
- Vz_pred [2, 3]: 1.12 L/kg and 2.06 L/kg and 1.25 L/kg
- Cl_pred ([2]; 5 mg/kg IV, mean): 18.8 mL/min/kg
- Vz_pred ([2]; 5 mg/kg IV, mean): 1.48 L/kg
- Plasma concentrations ([2]; 30 mg/kg IP, 0.25 h, individual animals 201M-203M): 1507.7 ng/mL and 971.3 ng/mL
- Plasma concentrations ([2]; 30 mg/kg IP, 0.50 h, individual animals 201M-203M): 2007.7 ng/mL and 1751.8 ng/mL
- Plasma concentrations ([2]; 30 mg/kg IP, 1.00 h, individual animals 201M-203M): 3178.8 ng/mL and 2919.1 ng/mL
- Plasma concentrations ([2]; 30 mg/kg IP, 2.00 h, individual animals 201M-203M): 3158.8 ng/mL and 3638.0 ng/mL
- Plasma concentrations ([2]; 30 mg/kg IP, 4.00 h, individual animals 201M-203M): 2115.5 ng/mL and 1962.2 ng/mL
- Plasma concentrations ([2]; 30 mg/kg IP, 8.00 h, individual animals 201M-203M): 1428.1 ng/mL and 1227.0 ng/mL
- Plasma concentrations ([2]; 30 mg/kg IP, 24.00 h, individual animals 201M-203M): 185.0 ng/mL and 145.1 ng/mL
- AUCINF_pred [2, 4]: 29976.8 ng·h/mL and 27188.2 ng·h/mL
- AUClast [2, 4]: 28429.1 ng·h/mL and 26046.4 ng·h/mL
- Cl_F_pred [2, 4]: 22 mL/min/kg and 16.7 mL/min/kg and 18.3 mL/min/kg
- Cmax [2, 4]: 3178.8 ng/mL and 3638.0 ng/mL
- F % [2, 4]: 79.64% and 103.54% and 94.86%
- HL_Lambda_z (T1/2, h) [2, 4]: 5.85 h and 5.52 h
- MRTlast [2, 4]: 5.45 h and 5.15 h
- Tmax [2, 4]: 2.00 h
- Vz_F_pred [2, 4]: 10.11 L/kg and 8.44 L/kg and 8.78 L/kg
- Cl_F_pred ([2]; 30 mg/kg IP, mean): 19 mL/min/kg
- Vz_F_pred ([2]; 30 mg/kg IP, mean): 9.11 L/kg
- concentration at 0.25 h ([2]; C57, mouse, plasma, intraperitoneal, 30 mg/kg, 30 mg/kg IP, 0.25 h, individual animals 201M-203M, read-out: Plasma concentrations): 1490 ng/mL
- concentration at 0.25 h ([2]; C57, mouse, plasma, intraperitoneal, 30 mg/kg, 30 mg/kg IP, 0.25 h, mean, read-out: Plasma concentrations): 1320 ng/mL
- concentration at 0.5 h ([2]; C57, mouse, plasma, intraperitoneal, 30 mg/kg, 30 mg/kg IP, 0.50 h, individual animals 201M-203M, read-out: Plasma concentrations): 2270 ng/mL
- concentration at 0.5 h ([2]; C57, mouse, plasma, intraperitoneal, 30 mg/kg, 30 mg/kg IP, 0.50 h, mean, read-out: Plasma concentrations): 2010 ng/mL
- concentration at 1 h ([2]; C57, mouse, plasma, intraperitoneal, 30 mg/kg, 30 mg/kg IP, 1.00 h, individual animals 201M-203M, read-out: Plasma concentrations): 2990 ng/mL
- concentration at 1 h ([2]; C57, mouse, plasma, intraperitoneal, 30 mg/kg, 30 mg/kg IP, 1.00 h, mean, read-out: Plasma concentrations): 3030 ng/mL
- concentration at 2 h ([2]; C57, mouse, plasma, intraperitoneal, 30 mg/kg, 30 mg/kg IP, 2.00 h, individual animals 201M-203M, read-out: Plasma concentrations): 2830 ng/mL
- concentration at 2 h ([2]; C57, mouse, plasma, intraperitoneal, 30 mg/kg, 30 mg/kg IP, 2.00 h, mean, read-out: Plasma concentrations): 3210 ng/mL
- concentration at 4 h ([2]; C57, mouse, plasma, intraperitoneal, 30 mg/kg, 30 mg/kg IP, 4.00 h, individual animals 201M-203M, read-out: Plasma concentrations): 1600 ng/mL
- concentration at 4 h ([2]; C57, mouse, plasma, intraperitoneal, 30 mg/kg, 30 mg/kg IP, 4.00 h, mean, read-out: Plasma concentrations): 1890 ng/mL
- concentration at 8 h ([2]; C57, mouse, plasma, intraperitoneal, 30 mg/kg, 30 mg/kg IP, 8.00 h, individual animals 201M-203M, read-out: Plasma concentrations): 998 ng/mL
- concentration at 8 h ([2]; C57, mouse, plasma, intraperitoneal, 30 mg/kg, 30 mg/kg IP, 8.00 h, mean, read-out: Plasma concentrations): 1220 ng/mL
- concentration at 24 h ([2]; C57, mouse, plasma, intraperitoneal, 30 mg/kg, 30 mg/kg IP, 24.00 h, individual animals 201M-203M, read-out: Plasma concentrations): 107 ng/mL
- concentration at 24 h ([2]; C57, mouse, plasma, intraperitoneal, 30 mg/kg, 30 mg/kg IP, 24.00 h, mean, read-out: Plasma concentrations): 146 ng/mL
- concentration at 0.08 h ([2]; C57, mouse, plasma, intravenous, 5 mg/kg, 5 mg/kg IV, 0.08 h, mean, read-out: Plasma concentrations): 6900 ng/mL
- concentration at 0.25 h ([2]; C57, mouse, plasma, intravenous, 5 mg/kg, 5 mg/kg IV, 0.25 h, mean, read-out: Plasma concentrations): 4530 ng/mL
- concentration at 0.5 h ([2]; C57, mouse, plasma, intravenous, 5 mg/kg, 5 mg/kg IV, 0.50 h, individual animals 101M-103M, read-out: Plasma concentrations): 2080 ng/mL
- concentration at 0.5 h ([2]; C57, mouse, plasma, intravenous, 5 mg/kg, 5 mg/kg IV, 0.50 h, mean, read-out: Plasma concentrations): 2180 ng/mL
- concentration at 1 h ([2]; C57, mouse, plasma, intravenous, 5 mg/kg, 5 mg/kg IV, 1.00 h, individual animals 101M-103M, read-out: Plasma concentrations): 1350 ng/mL
- concentration at 1 h ([2]; C57, mouse, plasma, intravenous, 5 mg/kg, 5 mg/kg IV, 1.00 h, mean, read-out: Plasma concentrations): 1220 ng/mL
- concentration at 2 h ([2]; C57, mouse, plasma, intravenous, 5 mg/kg, 5 mg/kg IV, 2.00 h, individual animals 101M-103M, read-out: Plasma concentrations): 309 ng/mL
- concentration at 2 h ([2]; C57, mouse, plasma, intravenous, 5 mg/kg, 5 mg/kg IV, 2.00 h, mean, read-out: Plasma concentrations): 338 ng/mL
- concentration at 4 h ([2]; C57, mouse, plasma, intravenous, 5 mg/kg, 5 mg/kg IV, 4.00 h, individual animals 101M-103M, read-out: Plasma concentrations): 59 ng/mL
- concentration at 4 h ([2]; C57, mouse, plasma, intravenous, 5 mg/kg, 5 mg/kg IV, 4.00 h, mean, read-out: Plasma concentrations): 70.1 ng/mL
- concentration at 8 h ([2]; C57, mouse, plasma, intravenous, 5 mg/kg, 5 mg/kg IV, 8.00 h, individual animals 101M-103M, read-out: Plasma concentrations): 26.5 ng/mL
- concentration at 8 h ([2]; C57, mouse, plasma, intravenous, 5 mg/kg, 5 mg/kg IV, 8.00 h, mean, read-out: Plasma concentrations): 33.2 ng/mL
- AUC(0-t) [2, 5]: 21900 ng·h/mL
- MRT last [2, 5]: 4.9 h
- AUC(0-inf) [2, 5]: 22700 ng·h/mL
- Cmax ([2]; C57, mouse, plasma, ip, 30 mg/kg, 30 mg/kg IP, individual animals 201M-203M, read-out: Cmax): 2990 ng/mL
- half-life ([2]; C57, mouse, plasma, ip, 30 mg/kg, 30 mg/kg IP, individual animals 201M-203M, read-out: HL_Lambda_z (T1/2, h) (converted)): 5.29 h
- Tmax ([2]; C57, mouse, plasma, ip, 30 mg/kg, 30 mg/kg IP, individual animals 201M-203M, read-out: Tmax): 1 h
- AUC(0-t) [2, 6]: 25400 ng·h/mL
- MRT last [2, 6]: 5.17 h
- bioavailability [2, 6]: 92.7%
- AUC(0-inf) [2, 6]: 26600 ng·h/mL
- Cmax ([2]; C57, mouse, plasma, ip, 30 mg/kg, 30 mg/kg IP, mean, read-out: Cmax): 3270 ng/mL
- half-life ([2]; C57, mouse, plasma, ip, 30 mg/kg, 30 mg/kg IP, mean, read-out: HL_Lambda_z (T1/2, h) (converted)): 5.55 h
- Tmax ([2]; C57, mouse, plasma, ip, 30 mg/kg, 30 mg/kg IP, mean, read-out: Tmax): 1.33 h
- half-life ([2]; C57, mouse, plasma, ip, 30 mg/kg, IP injection, single 30 mg/kg dose, read-out: half life (converted)): ~5.5 h
- AUC(0-t) [2, 7]: 5480 ng·h/mL
- MRT last [2, 7]: 0.63 h
- AUC(0-inf) [2, 7]: 5500 ng·h/mL
- half-life ([2]; C57, mouse, plasma, iv, 5 mg/kg, 5 mg/kg IV, individual animals 101M-103M, read-out: HL_Lambda_z (T1/2, h) (converted)): 0.85 h
- AUC(0-t) [2, 8]: 4580 ng·h/mL
- MRT last [2, 8]: 0.76 h
- AUC(0-inf) [2, 8]: 4610 ng·h/mL
- Cmax ([2]; C57, mouse, plasma, iv, 5 mg/kg, 5 mg/kg IV, mean, read-out: Cmax): 6900 ng/mL
- half-life ([2]; C57, mouse, plasma, iv, 5 mg/kg, 5 mg/kg IV, mean, read-out: HL_Lambda_z (T1/2, h) (converted)): 0.89 h
- peak concentration ([2]; IP injection, single 30 mg/kg dose): 3268 ng/mL
